Measurements from patent US8507509B2, “Saturated and insaturated bi- or tricyclic aryloxyacetamine derivatives and their use as fungicides” (Syngenta Crop Protection LLC, priority 2007, dated 2013).

Assays:
Septoria tritici = Septoria tritici (leaf blotch), liquid culture growth inhibition in nutrient broth; format: cell-based; details: Zymoseptoria tritici; 200 ppm; PDB broth, 24 C; inhibition of growth determined photometrically after 72 hrs; read-out: control of fungal infection, Septoria tritici
Plasmopara viticola = Plasmopara viticola (downy mildew of grapevine), grapevine leaf disk assay, preventive; format: in vivo; details: foliar, 168 h, 200 ppm, grapevine leaf disks, assessed seven days after inoculation, read-out: control of fungal infection, Plasmopara viticola
[1] = tested on: Erysiphe graminis f.sp. tritici; assay: Erysiphe graminis f.sp. tritici (wheat powdery mildew), wheat leaf segment assay, preventive; format: in vivo; details: Blumeria graminis, foliar, 96 h; 200 ppm; wheat leaf segments; assessed four days after inoculation; read-out: control of fungal infection, Etysiphe graminis f.sp. tritici
Pythium ultimum = Pythium ultimum (Damping off), liquid culture growth inhibition in potato dextrose broth; format: cell-based; details: Globisporangium ultimum; 20 ppm; potato dextrose broth, 24° C.; inhibition of growth determined photometrically after 48 hours; read-out: control of fungal infection, Pythium ultimum
Phytophthora infestans = assay: whole plant or invertebrate; format: in vivo; details: in Solanum lycopersicum, foliar, 96 h, read-out: control of fungal infection, Phytophthora infestans
Septoria nodorum = Septoria nodorum (wheat glume blotch), wheat leaf segment assay, preventive; format: in vivo; details: Parastagonospora nodorum, foliar, 96 h; 200 ppm; wheat leaf segments; assessed four days after inoculation; read-out: control of fungal infection, Septoria nodorum

CON=CC(C)(C)NC(=O)C(Oc1cc(C)c2ncc(I)cc2c1)SC (centres unmarked) [Compound No. 44, 2-(3-Iodo-8-methyl-quinolin-6-yloxy)-N-(2-methoxyimino-1,1-dimethyl-ethyl)-2-methylsulfanyl-acetamide]
≥ 60%: inhibition of growth at 200 ppm (Septoria tritici) | pest or weed control at 200 ppm (Plasmopara viticola) | pest or weed control at 200 ppm [1] | inhibition of growth at 20 ppm (Pythium ultimum)

CCC(Oc1ccc2ncc(Br)cc2c1)C(=O)NC(C)(C)C=NOCCF (centres unmarked) [Compound No. 151, 2-(3-Bromo-quinolin-6-yloxy)-N-[2-(2-fluoro-ethoxyimino)-1,1-dimethyl-ethyl]-butyramide]
≥ 60%: inhibition of growth at 200 ppm (Septoria tritici) | pest or weed control at 200 ppm (Plasmopara viticola) | pest or weed control at 200 ppm [1] | inhibition of growth at 20 ppm (Pythium ultimum) | pest or weed control at 200 ppm (Phytophthora infestans)

CON=CCC(C)(C)NC(=O)C(Oc1ccc2ncc(I)cc2c1)SC (centres unmarked) [Compound No. 46, 2-(3-Iodo-quinolin-6-yloxy)-N-(3-methoxyimino-1,1-dimethyl-propyl)-2-methylsulfanyl-acetamide]
≥ 60%: inhibition of growth at 200 ppm (Septoria tritici) | pest or weed control at 200 ppm (Plasmopara viticola) | pest or weed control at 200 ppm (Septoria nodorum) | pest or weed control at 200 ppm [1] | pest or weed control at 200 ppm (Phytophthora infestans)

C#Cc1cnc2c(C)cc(OC(CC)C(=O)NC(C)(C)C=NOC)cc2c1 (centres unmarked) [Compound No. 132, 2-(3-Ethynyl-8-methyl-quinolin-6-yloxy)-N-(2-methoxyimino-1,1-dimethyl-ethyl)-butyramide]
≥ 60%: inhibition of growth at 200 ppm (Septoria tritici) | pest or weed control at 200 ppm (Plasmopara viticola) | pest or weed control at 200 ppm (Septoria nodorum) | pest or weed control at 200 ppm [1] | inhibition of growth at 20 ppm (Pythium ultimum) | pest or weed control at 200 ppm (Phytophthora infestans)

CCON=CC(C)(C)NC(=O)C(Oc1cc(C)c2ncc(I)cc2c1)SC (centres unmarked) [Compound No. 42, N-(2-Ethoxyimino-1,1-dimethyl-ethyl)-2-(3-iodo-8-methyl-quinolin-6-yloxy)-2-methylsulfanyl-acetamide]
≥ 60%: pest or weed control at 200 ppm (Plasmopara viticola) | pest or weed control at 200 ppm (Septoria nodorum) | pest or weed control at 200 ppm (Phytophthora infestans)

CSC(Oc1ccc2ncc(Br)cc2c1)C(=O)NC(C)(C)C=NOCC#N (centres unmarked) [Compound No. 140, 2-(3-Bromo-quinolin-6-yloxy)-N-(2-cyanomethoxyimino-1,1-dimethyl-ethyl)-2-methylsulfanyl-acetamide]
≥ 60%: inhibition of growth at 200 ppm (Septoria tritici) | pest or weed control at 200 ppm (Plasmopara viticola) | pest or weed control at 200 ppm [1] | inhibition of growth at 20 ppm (Pythium ultimum) | pest or weed control at 200 ppm (Phytophthora infestans)

CON=C(Cc1ccsc1)C(C)(C)NC(=O)C(Oc1ccc2ncc(Br)cc2c1)SC (centres unmarked) [Compound No. 124, 2-(3-Bromo-quinolin-6-yloxy)-N-{2-[(E or Z)-methoxyimino]-1,1-dimethyl-3-thiophen-3-yl-propyl}-2-methylsulfanyl-acetamide]
≥ 60%: inhibition of growth at 200 ppm (Septoria tritici) | pest or weed control at 200 ppm (Septoria nodorum)

CCON=CC(C)(C)NC(=O)C(Oc1ccc2ncc(I)cc2c1)SC (centres unmarked) [Compound No. 51, N-(2-Ethoxyimino-1,1-dimethyl-ethyl)-2-(3-iodo-quinolin-6-yloxy)-2-methylsulfanyl-acetamide]
≥ 60%: inhibition of growth at 200 ppm (Septoria tritici) | pest or weed control at 200 ppm (Plasmopara viticola) | pest or weed control at 200 ppm [1] | inhibition of growth at 20 ppm (Pythium ultimum)

C#CCON=CC(C)(C)NC(=O)C(Oc1ccc2ncc(Br)cc2c1)SC (centres unmarked) [Compound No. 17, 2-(3-Bromo-quinolin-6-yloxy)-N-(1,1-dimethyl-2-prop-2-ynyloxyimino-ethyl)-2-methylsulfanyl-acetamide]
≥ 60%: inhibition of growth at 200 ppm (Septoria tritici) | pest or weed control at 200 ppm (Plasmopara viticola) | pest or weed control at 200 ppm (Septoria nodorum) | pest or weed control at 200 ppm [1] | inhibition of growth at 20 ppm (Pythium ultimum) | pest or weed control at 200 ppm (Phytophthora infestans)

C=CCON=CC(C)(C)NC(=O)C(CC)Oc1ccc2ncc(I)cc2c1 (centres unmarked) [Compound No. 4, N-(2-Allyloxyimino-1,1-dimethyl-ethyl)-2-(3-iodo-quinolin-6-yloxy)-butyramide]
≥ 60%: inhibition of growth at 200 ppm (Septoria tritici) | pest or weed control at 200 ppm (Plasmopara viticola) | pest or weed control at 200 ppm [1] | inhibition of growth at 20 ppm (Pythium ultimum) | pest or weed control at 200 ppm (Phytophthora infestans)

CCC(Oc1cc2cc(Br)cnc2cc1F)C(=O)NC(C)(C)C=NOC (centres unmarked) [Compound No. 154, 2-(3-Bromo-7-fluoro-quinolin-6-yloxy)-N-(2-methoxyimino-1,1-dimethyl-ethyl)-butyramide]
≥ 60%: inhibition of growth at 200 ppm (Septoria tritici) | pest or weed control at 200 ppm (Plasmopara viticola) | pest or weed control at 200 ppm (Septoria nodorum) | pest or weed control at 200 ppm [1] | pest or weed control at 200 ppm (Phytophthora infestans)

CSC(Oc1cc(C)c2ncc(I)cc2c1)C(=O)NC(C)(C)CC=NO (centres unmarked) [Compound No. 41, N-(3-Hydroxyimino-1,1-dimethyl-propyl)-2-(3-iodo-8-methyl-quinolin-6-yloxy)-2-methylsulfanylacetamide]
≥ 60%: inhibition of growth at 200 ppm (Septoria tritici) | pest or weed control at 200 ppm (Plasmopara viticola) | pest or weed control at 200 ppm [1] | inhibition of growth at 20 ppm (Pythium ultimum) | pest or weed control at 200 ppm (Phytophthora infestans)

CSC(Oc1ccc2ncc(Br)cc2c1)C(=O)NC(C)(C)C=NO (centres unmarked) [Compound No. 19, 2-(3-Bromo-quinolin-6-yloxy)-N-(2-hydroxyimino-1,1-dimethyl-ethyl)-2-methylsulfanyl-acetamide]
≥ 60%: inhibition of growth at 200 ppm (Septoria tritici) | pest or weed control at 200 ppm (Plasmopara viticola) | pest or weed control at 200 ppm [1] | inhibition of growth at 20 ppm (Pythium ultimum) | pest or weed control at 200 ppm (Phytophthora infestans)

CSC(Oc1ccc2ncc(Br)cc2c1)C(=O)NC(C)(C)C=NOCC1CCCO1 (centres unmarked) [Compound No. 143, 2-(3-Bromo-quinolin-6-yloxy)-N-[1,1-dimethyl-2-(tetrahydro-furan-2-ylmethoxyimino)-ethyl]-2-methylsulfanyl-acetamide]
≥ 60%: inhibition of growth at 200 ppm (Septoria tritici) | pest or weed control at 200 ppm (Plasmopara viticola) | pest or weed control at 200 ppm [1] | inhibition of growth at 20 ppm (Pythium ultimum) | pest or weed control at 200 ppm (Phytophthora infestans)

CSC(Oc1ccc2ncc(Br)cc2c1)C(=O)NC(C)(C)C=NOc1ccccc1 (centres unmarked) [Compound No. 8, 2-(3-Bromo-quinolin-6-yloxy)-N-(1,1-dimethyl-2-phenoxyimino-ethyl)-2-methylsulfanyl-acetamide]
≥ 60%: inhibition of growth at 200 ppm (Septoria tritici) | pest or weed control at 200 ppm (Plasmopara viticola) | inhibition of growth at 20 ppm (Pythium ultimum) | pest or weed control at 200 ppm (Phytophthora infestans)

CON=CC(C)(C)NC(=O)C(Oc1cc(Br)c2ncc(Br)cc2c1)SC (centres unmarked) [Compound No. 34, 2-(3,8-Dibromo-quinolin-6-yloxy)-N-(2-methoxyimino-1,1-dimethyl-ethyl)-2-methylsulfanyl-acetamide]
≥ 60%: inhibition of growth at 200 ppm (Septoria tritici) | pest or weed control at 200 ppm (Septoria nodorum)

CON=CC(C)(C)NC(=O)C(OC)Oc1ccc2ncc(Br)cc2c1 (centres unmarked) [Compound No. 70, 2-(3-Bromo-quinolin-6-yloxy)-2-methoxy-N-(2-methoxyimino-1,1-dimethyl-ethyl)-acetamide]
≥ 60%: inhibition of growth at 200 ppm (Septoria tritici) | pest or weed control at 200 ppm (Plasmopara viticola) | pest or weed control at 200 ppm [1] | inhibition of growth at 20 ppm (Pythium ultimum) | pest or weed control at 200 ppm (Phytophthora infestans)

CCC(Oc1ccc2ncc(I)cc2c1)C(=O)NC(C)(C)C=NO (centres unmarked) [Compound No. 152, N-(2-Hydroxyimino-1,1-dimethyl-ethyl)-2-(3-iodo-quinolin-6-yloxy)-butyramide]
≥ 60%: inhibition of growth at 200 ppm (Septoria tritici) | pest or weed control at 200 ppm (Plasmopara viticola) | pest or weed control at 200 ppm [1] | inhibition of growth at 20 ppm (Pythium ultimum) | pest or weed control at 200 ppm (Phytophthora infestans)

C#Cc1cnc2ccc(OC(CC)C(=O)NC(C)(C)C=NOC)cc2c1 (centres unmarked) [Compound No. 131, 2-(3-Ethynyl-quinolin-6-yloxy)-N-(2-methoxyimino-1,1-dimethyl-ethyl)-butyramide]
≥ 60%: inhibition of growth at 200 ppm (Septoria tritici) | pest or weed control at 200 ppm (Plasmopara viticola) | pest or weed control at 200 ppm (Septoria nodorum) | pest or weed control at 200 ppm [1] | inhibition of growth at 20 ppm (Pythium ultimum) | pest or weed control at 200 ppm (Phytophthora infestans)

CON=C(c1ccccc1)C(C)(C)NC(=O)C(Oc1ccc2ncc(Br)cc2c1)SC (centres unmarked) [Compound No. 130, 2-(3-Bromo-quinolin-6-yloxy)-N-{2-[(E or Z)-methoxyimino]-1,1-dimethyl-2-phenyl-ethyl}-2-methylsulfanyl-acetamide]
≥ 60%: inhibition of growth at 200 ppm (Septoria tritici) | pest or weed control at 200 ppm (Plasmopara viticola) | pest or weed control at 200 ppm (Septoria nodorum) | pest or weed control at 200 ppm [1] | inhibition of growth at 20 ppm (Pythium ultimum) | pest or weed control at 200 ppm (Phytophthora infestans)

C#Cc1cnc2ccc(OC(SC)C(=O)NC(C)(C)C=NOC)cc2c1 (centres unmarked) [Compound No. 38, 2-(3-Ethynyl-quinolin-6-yloxy)-N-(2-methoxyimino-1,1-dimethyl-ethyl)-2-methylsulfanyl-acetamide]
≥ 60%: inhibition of growth at 200 ppm (Septoria tritici) | pest or weed control at 200 ppm (Plasmopara viticola) | pest or weed control at 200 ppm (Septoria nodorum) | pest or weed control at 200 ppm [1] | pest or weed control at 200 ppm (Phytophthora infestans)

COCC(C)(C=NOC)NC(=O)C(Oc1cc(C)c2ncc(Br)cc2c1)SC (centres unmarked) [Compound No. 63, 2-(3-Bromo-8-methyl-quinolin-6-yloxy)-N-(2-methoxyimino-1-methoxymethyl-1-methyl-ethyl)-2-methylsulfanyl-acetamide]
≥ 60%: inhibition of growth at 200 ppm (Septoria tritici) | pest or weed control at 200 ppm (Plasmopara viticola) | pest or weed control at 200 ppm (Septoria nodorum) | pest or weed control at 200 ppm [1] | pest or weed control at 200 ppm (Phytophthora infestans)

COCC(=O)ON=CCC(C)(C)NC(=O)C(Oc1cc(C)c2ncc(I)cc2c1)SC (centres unmarked) [Compound No. 103, 2-(3-Iodo-8-methyl-quinolin-6-yloxy)-N-(3-methoxyacetoxyimino-1,1-dimethyl-propyl)-2-methylsulfanyl-acetamide]
≥ 60%: inhibition of growth at 200 ppm (Septoria tritici) | pest or weed control at 200 ppm (Plasmopara viticola) | pest or weed control at 200 ppm (Septoria nodorum) | pest or weed control at 200 ppm [1]
